Results taken from patent US20100130619A1, “PHARMACEUTICAL COMPOSITION FOR PARENTERAL ADMINISTRATION OF IDEBENONE” (priority 2008, published 2010).

Tests used:
Solubility of Idebenone = type: physicochemical
Text: The low water solubility of Idebenone makes the task of producing an injectable form very difficult. Use of water miscible solvents (alcohol, propylene glycol, liquid PEG, N-methylpyrrolidone, etc.), where Idebenone dissolves well, is inappropriate due to the immediate precipitation of the drug upon contact with physiological fluids or a water phase. An inclusion complex of Idebenone with cyclodextrin has been described, but it is water dispersible, not soluble and not suitable for injection. The solubility of Idebenone in fixed oils (soy, corn, almond, etc.) is low; drug precipitates from such emulsions during storage, limiting their use for the preparation of injectable forms of […].

[1] = oral; cited from earlier work
[2] = test system: learning and memory disturbances; settings: rats; cited from earlier work
cerebrovascular disease = settings: nine patients, 90 mg daily; cited from earlier work
[3] = test system: microsomal lipid peroxidation; settings: cited from earlier work
Friedreich's Ataxia = settings: cited from earlier work
[4] = test system: cultured cortical neurons; settings: cited from earlier work

solubility in fixed oils (Solubility of Idebenone; fixed oils (soy, corn, almond, etc.)): low
water solubility (Solubility of Idebenone; water): low
SMILES: COC1=C(OC)C(=O)C(CCCCCCCCCCO)=C(C)C1=O [Idebenone, 2,3-dimethoxy-5-methyl-6-(10-hydroxydecyl)-1,4-benzoquinone]
bioavailability [1]: relatively high
learning and memory disturbances [2]: ameliorates learning and memory disturbances
EEG and clinical symptoms (cerebrovascular disease): improvements in EEG and clinical symptoms
free radical scavenging ([3]; cell cultures): scavenges a variety of free radical species
microsomal lipid peroxidation ([3]; induced by ADP-iron complexes or organic hydroperoxides): inhibits microsomal lipid peroxidation
marker of oxidative DNA damage (Friedreich's Ataxia; oral 5 mg/kg daily for 8 weeks): significantly decreased
left ventricular enlargement (Friedreich's Ataxia; three patients, 5 mg/kg daily for 4-9 months): reduction of left ventricular enlargement
rescue on delayed application ([4]; applied 30 minutes after the NMDA pulse): rescues cortical neurons
protection against necrotic degeneration ([4]; cultured cortical neurons): protects cultured cortical neurons against necrotic degeneration
